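1) Cells in 96-well plates. 2) Compound, 48 h, 5 concentrations. 3) Linear interpolation between surrounding doses. 4) Unreached endpoint = highest concentration. GI50: concentration for 50% inhibition of growth.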 Activity calls are given as the source filed them. Rule as the data show it: active = GI50 up to about 1.1 µM and inactive = higher.
Columns and labels:
Test in all cases: NCI tumour cell line growth inhibition, 48 h
IGROV-1 = system: IGROV-1
HOP-92 = system: HOP-92
SK-OV-3 = system: SK-OV-3
OVCAR-3 = system: OVCAR-3
NCI-H23 = system: NCI-H23
EKVX = system: EKVX
CCRF-CEM = system: CCRF-CEM
A549 = system: A549
SR = system: SR
MCF7 = system: MCF7
SNB-75 = system: SNB-75
PC-3 = system: PC-3
OVCAR-8 = system: OVCAR-8
NCI/ADR-RES = system: NCI/ADR-RES
SF-539 = system: SF-539
HL-60 = system: HL-60
SW-620 = system: SW-620
HCC 2998 = system: HCC 2998
BT-549 = system: BT-549
MOLT-4 = system: MOLT-4

Row | Compound | GI50 (IGROV-1) | GI50 (HOP-92) | GI50 (SK-OV-3) | GI50 (OVCAR-3) | GI50 (NCI-H23) | GI50 (EKVX) | GI50 (CCRF-CEM) | GI50 (A549) | GI50 (SR) | GI50 (MCF7) | GI50 (SNB-75) | GI50 (PC-3) | GI50 (OVCAR-8) | GI50 (NCI/ADR-RES) | GI50 (SF-539) | GI50 (HL-60) | GI50 (SW-620) | GI50 (HCC 2998) | GI50 (BT-549) | GI50 (MOLT-4)
1 | CC(C)(O)CO/N=C1\C(=C2\C(=O)Nc3ccccc32)Nc2ccccc21 | 0.0895 µM (active) | 3.48 µM (inactive) | 0.158 µM (active) | 1.32 µM (inactive) | 1.18 µM (inactive) | 1.65 µM (inactive) | 0.435 µM (active) | 0.724 µM (active) | 0.594 µM (active) | 1.39 µM (inactive) | 0.811 µM (active) | 0.883 µM (active) | 1.15 µM (inactive) | 1.33 µM (inactive) | 2.71 µM (inactive) | 0.74 µM (active) | 0.811 µM (active) | 0.991 µM (active) | 1.82 µM (inactive) | 0.944 µM (active)
2 | O=[N+]([O-])/C(Cl)=C/C(=C1/Nc2ccccc2O1)[N+](=O)[O-] | 33.1 µM (inactive) | 24.7 µM (inactive) | 24 µM (inactive) | 19.3 µM (inactive) | 17.8 µM (inactive) | 18.8 µM (inactive) | 13.3 µM (inactive) | 34.8 µM (inactive) | 8.71 µM (inactive) | 29.6 µM (inactive) | 14.1 µM (inactive) | 14.1 µM (inactive) | 17.9 µM (inactive) | 24.3 µM (inactive) | 15.5 µM (inactive) | 11.6 µM (inactive) | 32.7 µM (inactive) | 14.6 µM (inactive) | 16.3 µM (inactive) | 19.8 µM (inactive)
3 | CCCc1ccc(OCC(=O)N/N=C/c2c(-c3ccccc3)[nH]c3ccccc23)cc1 | 13.1 µM (inactive) | 13.7 µM (inactive) | 27.2 µM (inactive) | 24.5 µM (inactive) | 13.6 µM (inactive) | 12.7 µM (inactive) | 5.98 µM (inactive) | 8.17 µM (inactive) | 3.85 µM (inactive) | 4.57 µM (inactive) | 19.2 µM (inactive) | 5.98 µM (inactive) | 9.08 µM (inactive) | 6.81 µM (inactive) | 16.2 µM (inactive) | 3.96 µM (inactive) | 10.6 µM (inactive) | 4.04 µM (inactive) | 13.8 µM (inactive) | 5.01 µM (inactive)
4 | Cc1cccc(NS(=O)(=O)c2ccc(/N=N/c3c(O)c(C(=O)O)cc4ccccc34)cc2)n1 | > 100 µM (inactive) | > 100 µM (inactive) | > 100 µM (inactive) | > 100 µM (inactive) | > 100 µM (inactive) | > 100 µM (inactive) | > 100 µM (inactive) | > 100 µM (inactive) | > 100 µM (inactive) | > 100 µM (inactive) | > 100 µM (inactive) | > 100 µM (inactive) | > 100 µM (inactive) | > 100 µM (inactive) | > 100 µM (inactive) | > 100 µM (inactive) | > 100 µM (inactive) | > 100 µM (inactive) | > 100 µM (inactive) | > 100 µM (inactive)
5 | O=C(CCc1ccccc1CO)NCCc1ccccc1 | > 100 µM (inactive) | > 100 µM (inactive) | > 100 µM (inactive) | > 100 µM (inactive) | > 100 µM (inactive) | > 100 µM (inactive) | > 100 µM (inactive) | > 100 µM (inactive) | > 100 µM (inactive) | > 100 µM (inactive) | 49.1 µM (inactive) | > 100 µM (inactive) | > 100 µM (inactive) | > 100 µM (inactive) | > 100 µM (inactive) | 72.4 µM (inactive) | > 100 µM (inactive) | > 100 µM (inactive) | > 100 µM (inactive) | > 100 µM (inactive)
6 | CC(=O)NCCCCCCNC(C)=O [HEXAMETHYLENEBISACETAMIDE] | 9180 µM (inactive) | 3560 µM (inactive) | 8930 µM (inactive) | 8180 µM (inactive) | 9160 µM (inactive) | 7280 µM (inactive) | 7670 µM (inactive) | 2290 µM (inactive) | > 8530 µM (inactive) | 3480 µM (inactive) | 2840 µM (inactive) | 8180 µM (inactive) | 7620 µM (inactive) | 7410 µM (inactive) | 6070 µM (inactive) | 3450 µM (inactive) | > 3570 µM (inactive) | 4290 µM (inactive) | > 10000 µM (inactive) | 7280 µM (inactive)

Reference: ChEMBL document CHEMBL1201862, “PubChem BioAssay data set” (2004)
